{"source": "patent US4591595A", "about": "“2-guanidino-4-(2-methyl-4-imidazolyl)thiazoles in the treatment of rheumatoid arthritis” (Pfizer Inc., priority 1985, dated 1986)", "system": "Adjuvant-Induced Arthritis", "assay": "Adjuvant-induced arthritis in the rat (Mycobacterium butyricum, subplantar; inhibition of hindpaw edema, primary and secondary lesions)", "assay_type": "in vivo, rat (adult male Wistar-Lewis)", "conditions": "for % Inhibition of Lesions, Secondary (mean ± SE): contralateral non-injected paw, day 16; for % Inhibition of Lesions, Primary (mean ± SE): injected paw, day 4; for ED50: Rattus norvegicus", "description": "Adjuvant arthritis was induced in adult male Wistar-Lewis rats weighing 250-270 grams each (Charles River Breeding Laboratories, Kingston, N.Y.) by a single subplantar injection of 1 mg of Mycobacterium butyricum (Difco Laboratories, Lot #0640-33) suspended in 0.1 ml mineral oil as described by Walz et al. (Proc. Soc. Exptl. Biol. Med., 136: 907-910, 1971). Seven rats were used in each group. Orally administered drugs were dissolved in water and dilute sodium hydroxide was added as necessary to ensure solution; control groups received only water. After neutralization of the solutions to pH 7.0, a volume of 10 ml/kg body weight was given by intubation with a blunt end, 18-gauge needle. Doses of each drug were given daily starting 1 day before the injection of adjuvant and continuing until 16 days after the induction of the arthritic lesion.\nThe initial hindpaw volumes (Vi) were measured on the day of adjuvant injection and the resultant swelling was determined on the injected paw (Vf - Vi) on the 4th day following the adjuvant injection. This was considered to be the primary response or lesion. The swelling (Vf - Vi) measured 16 days after adjuvant injection on the contralateral, non-injected hindpaw constituted the secondary response or lesion. The rats were weighed at the start of the experiments as well as 4 and 16 days after the induction of the disease. Percent inhibition of edema was calculated according to the following formula: [formula]", "note": "Read-outs that look alike come from different tables or passages of the source.", "data": [{"smiles": "Cc1nc(-c2csc(NC(=N)N)n2)c[nH]1.Cl.Cl", "note": "[Compound A, 2-Guanidino-4-(2-methyl-4-imidazolyl)thiazole Dihydrochloride]", "values": [{"measurement": "effect on the course of adjuvant arthritis in rats (in words)", "setting": "compound alone", "result": "beneficial effect"}, {"measurement": "% Inhibition of Lesions, Secondary (mean ± SE)", "setting": "oral 1.0 mg/kg daily", "result": "3 (3) %"}, {"measurement": "% Inhibition of Lesions, Primary (mean ± SE)", "setting": "oral 1.0 mg/kg daily", "result": "0 (6) %"}, {"measurement": "% Inhibition of Lesions, Secondary (mean ± SE)", "setting": "oral 3.3 mg/kg daily", "result": "28 (4) %"}, {"measurement": "% Inhibition of Lesions, Primary (mean ± SE)", "setting": "oral 3.3 mg/kg daily", "result": "0 (3) %"}, {"measurement": "% Inhibition of Lesions, Secondary (mean ± SE)", "setting": "oral 10.0 mg/kg daily", "result": "27 (3) %"}, {"measurement": "% Inhibition of Lesions, Primary (mean ± SE)", "setting": "oral 10.0 mg/kg daily", "result": "2 (2) %"}, {"measurement": "ED50 (in words)", "setting": "oral, linear regression of Table I data, secondary lesions", "result": "no reliable ED50 could be extrapolated"}, {"measurement": "activity against primary lesions (in words)", "setting": "oral, primary lesions", "result": "no significant activity"}, {"measurement": "activity against secondary lesions (in words)", "setting": "oral, secondary lesions", "result": "significant activity"}]}, {"smiles": "CN1C(C(=O)Nc2ccccn2)=C(O)c2ccccc2S1(=O)=O", "note": "[Piroxicam, reference compound]", "values": [{"measurement": "ED50", "setting": "oral, linear regression of Table I data, primary lesions, read-out: ED50 against primary lesions", "result": 2.6, "unit": "mg/kg"}, {"measurement": "ED50", "setting": "oral, linear regression of Table I data, secondary lesions, read-out: ED50 against secondary lesions", "result": 0.45, "unit": "mg/kg"}, {"measurement": "% Inhibition of Lesions, Secondary (mean ± SE)", "setting": "oral 0.10 mg/kg daily", "result": "26 (2) %"}, {"measurement": "% Inhibition of Lesions, Primary (mean ± SE)", "setting": "oral 0.10 mg/kg daily", "result": "29 (4) %"}, {"measurement": "% Inhibition of Lesions, Secondary (mean ± SE)", "setting": "oral 0.33 mg/kg daily", "result": "43 (4) %"}, {"measurement": "% Inhibition of Lesions, Primary (mean ± SE)", "setting": "oral 0.33 mg/kg daily", "result": "33 (8) %"}, {"measurement": "% Inhibition of Lesions, Secondary (mean ± SE)", "setting": "oral 1.0 mg/kg daily", "result": "64 (3) %"}, {"measurement": "% Inhibition of Lesions, Primary (mean ± SE)", "setting": "oral 1.0 mg/kg daily", "result": "45 (7) %"}]}]}
